Assay results published in BindingDB's records for doi:10.1021/acs.jmedchem.1c00818 (University of Picardy Jules Verne, 2021).

Tests used:
[1] = Inhibition of DC-SIGN extracellular domain (unknown origin) binding to HIV gp120 by surface plasmon resonance analysis
[2] = Inhibition of DC-SIGN (unknown origin) expressed in human Jurkat cells assessed as inhibition of EBOV-pseudotyped virus infection measured after 48 hrs by luciferase assay
[3] = Inhibition of full-length DC-SIGN (unknown origin) expressed in human monocyte derived dendritic cells assessed as inhibition of binding to recombinant HCMV gB using flow cytometry

SMILES	IC50 [1] [µM]	IC50 [2] [µM]	IC50 [3] [µM]
CC(C)(C)c1cc2c(OCCCn3cc(CN(O)C(=O)CCCCCn4cc(CO[C@H]5O[C@H](CO)[C@@H](O)[C@H](O)[C@@H]5O)nn4)nn3)c(c1)Cc1cc(C(C)(C)C)cc(c1OCCCn1cc(CN(O)C(=O)CCCCCn3cc(CO[C@H]4O[C@H](CO)[C@@H](O)[C@H](O)[C@@H]4O)nn3)nn1)Cc1cc(C(C)(C)C)cc(c1OCCCn1cc(CN(O)C(=O)CCCCCn3cc(CO[C@H]4O[C@H](CO)[C@@H](O)[C@H](O)[C@@H]4O)nn3)nn1)Cc1cc(C(C)(C)C)cc(c1OCCCn1cc(CN(O)C(=O)CCCCCn3cc(CO[C@H]4O[C@H](CO)[C@@H](O)[C@H](O)[C@@H]4O)nn3)nn1)C2	37.5	0.634	0.156
C[C@@H]1O[C@@H](OCc2cn(CCCCCC(=O)N(O)Cc3cn(CCCOc4c5cc(C(C)(C)C)cc4Cc4cc(C(C)(C)C)cc(c4OCCCn4cc(CN(O)C(=O)CCCCCn6cc(CO[C@@H]7O[C@@H](C)[C@@H](O)[C@@H](O)[C@@H]7O)nn6)nn4)Cc4cc(C(C)(C)C)cc(c4OCCCn4cc(CN(O)C(=O)CCCCCn6cc(CO[C@@H]7O[C@@H](C)[C@@H](O)[C@@H](O)[C@@H]7O)nn6)nn4)Cc4cc(C(C)(C)C)cc(c4OCCCn4cc(CN(O)C(=O)CCCCCn6cc(CO[C@@H]7O[C@@H](C)[C@@H](O)[C@@H](O)[C@@H]7O)nn6)nn4)C5)nn3)nn2)[C@@H](O)[C@H](O)[C@@H]1O	26.8	0.289	0.188
COC(=O)CNC(=O)CN(Cc1cn(CCCOc2c3cc(C(C)(C)C)cc2Cc2cc(C(C)(C)C)cc(c2OCCCn2cc(CN(CC(=O)NCC(=O)OC)C(=O)CCCCCn4cc(CO[C@@H]5O[C@@H](C)[C@@H](O)[C@@H](O)[C@@H]5O)nn4)nn2)Cc2cc(C(C)(C)C)cc(c2OCCCn2cc(CN(CC(=O)NCC(=O)OC)C(=O)CCCCCn4cc(CO[C@@H]5O[C@@H](C)[C@@H](O)[C@@H](O)[C@@H]5O)nn4)nn2)Cc2cc(C(C)(C)C)cc(c2OCCCn2cc(CN(CC(=O)NCC(=O)OC)C(=O)CCCCCn4cc(CO[C@@H]5O[C@@H](C)[C@@H](O)[C@@H](O)[C@@H]5O)nn4)nn2)C3)nn1)C(=O)CCCCCn1cc(CO[C@@H]2O[C@@H](C)[C@@H](O)[C@@H](O)[C@@H]2O)nn1	26.5	0.218	0.777
COC(=O)CNC(=O)CN(Cc1cn(CCCOc2c3cc(C(C)(C)C)cc2Sc2cc(C(C)(C)C)cc(c2OCCCn2cc(CN(CC(=O)NCC(=O)OC)C(=O)CCCCCn4cc(CO[C@H]5O[C@H](CO)[C@@H](O)[C@H](O)[C@@H]5O)nn4)nn2)Sc2cc(C(C)(C)C)cc(c2OCCCn2cc(CN(CC(=O)NCC(=O)OC)C(=O)CCCCCn4cc(CO[C@H]5O[C@H](CO)[C@@H](O)[C@H](O)[C@@H]5O)nn4)nn2)Sc2cc(C(C)(C)C)cc(c2OCCCn2cc(CN(CC(=O)NCC(=O)OC)C(=O)CCCCCn4cc(CO[C@H]5O[C@H](CO)[C@@H](O)[C@H](O)[C@@H]5O)nn4)nn2)S3)nn1)C(=O)CCCCCn1cc(CO[C@H]2O[C@H](CO)[C@@H](O)[C@H](O)[C@@H]2O)nn1	14.6	–	–
COC(=O)CNC(=O)CN(Cc1cn(CCCOc2c3cc(C(C)(C)C)cc2Cc2cc(C(C)(C)C)cc(c2OCCCn2cc(CN(CC(=O)NCC(=O)OC)C(=O)CCCCCn4cc(CO[C@H]5O[C@H](CO)[C@@H](O)[C@H](O)[C@@H]5O)nn4)nn2)Cc2cc(C(C)(C)C)cc(c2OCCCn2cc(CN(CC(=O)NCC(=O)OC)C(=O)CCCCCn4cc(CO[C@H]5O[C@H](CO)[C@@H](O)[C@H](O)[C@@H]5O)nn4)nn2)Cc2cc(C(C)(C)C)cc(c2OCCCn2cc(CN(CC(=O)NCC(=O)OC)C(=O)CCCCCn4cc(CO[C@H]5O[C@H](CO)[C@@H](O)[C@H](O)[C@@H]5O)nn4)nn2)C3)nn1)C(=O)CCCCCn1cc(CO[C@H]2O[C@H](CO)[C@@H](O)[C@H](O)[C@@H]2O)nn1	45.3	–	–
COC(=O)CNC(=O)CN(Cc1cn(CCCOc2c3cc(C(C)(C)C)cc2Sc2cc(C(C)(C)C)cc(c2OCCCn2cc(CN(CC(=O)NCC(=O)OC)C(=O)CCCCCn4cc(CO[C@@H]5O[C@@H](C)[C@@H](O)[C@@H](O)[C@@H]5O)nn4)nn2)Sc2cc(C(C)(C)C)cc(c2OCCCn2cc(CN(CC(=O)NCC(=O)OC)C(=O)CCCCCn4cc(CO[C@@H]5O[C@@H](C)[C@@H](O)[C@@H](O)[C@@H]5O)nn4)nn2)Sc2cc(C(C)(C)C)cc(c2OCCCn2cc(CN(CC(=O)NCC(=O)OC)C(=O)CCCCCn4cc(CO[C@@H]5O[C@@H](C)[C@@H](O)[C@@H](O)[C@@H]5O)nn4)nn2)S3)nn1)C(=O)CCCCCn1cc(CO[C@@H]2O[C@@H](C)[C@@H](O)[C@@H](O)[C@@H]2O)nn1	17	0.602	1
CO[C@H]1O[C@H](CO)[C@@H](O)[C@H](O)[C@@H]1O [methyl alpha-D-mannoside]	–	1270	–
